Reference: patent EP0497303B1, “Carbamic acid derivatives and method for preparing the same” (KYORIN PHARMACEUTICAL CO., LTD., priority 1991, dated 1992)

System: amnesia induced by exposure to carbon dioxide gas
Assay: Action against amnesia induced by exposure to carbon dioxide gas (step-through passive avoidance)
Format: in vivo, Std: ddy strain male mice
Settings: for Reaction latency(sec) Mean±S.E: orally immediately after exposure to carbon dioxide gas and one hour before retention trial, retention trial after 24 hours, maximum 300 seconds; for Rate of improvement (%): orally, relative to CO2 treated and non-treated groups
Excerpt: The apparatus used was a passive avoidance apparatus of a step-through type (made by O'Hara Co., Ltd.). In the aquisition trial, each mouse was placed in the light compartment, a guillotine door of partition thereof was opened after 10 seconds, the guillotine door was closed as soon as the mouse moved into the dark compartment and an electric shock of 33 - 50 v was given for 1 second through the metal grid bars of the floor. Immediately after the electric shock was given, the mouse was taken out and was accommodated in a container having volume of ca. 300 ml filled with carbon dioxide gas. After immediately exposed to carbon dioxide gas having flow rate of ca. 5 liter/min. for 25 - 45 seconds, the mouse was taken out and was reanimated by artificial breathing. The retention trial was carried out after 24 hours. In the retention trial, the mouse was again placed in the light compartment, the time till the movement to the dark compartment was measured as a reaction latency until maximum 300 seconds and the mouse showing latency beyond it was deemed as 300 seconds. In addition, immediately after aquisition trial, a group not to exposed to carbon dioxide gas (comparison group of non-amnesia) was also made. The mouse was grouped per 10 - 30, the subject medicament was orally administered immediately after exposed to carbon dioxide gas and one hour before the retention trial. Rate of improvement =(Latency of CO2 -drug treated group - Latency of carbon dioxide exposed group)/(Latency of non-dementia group - Latency of carbon dioxide exposed group)x 100 [formula]

Structure (SMILES): CN1CCCC(OC(=O)Nc2ccccc2)C1 (centres unmarked) [Compound A, 3-(1-methylpiperidinyl) phenylcarbamate]
- Reaction latency(sec) Mean±S.E (Dose 100 mg/kg): 175.3 ± 36.7 s
- Rate of improvement (%) (Dose 100 mg/kg): 15.2%

Structure (SMILES): O=C(Nc1ccc(Cl)cc1)OC1CCN(c2ccncc2)CC1 [Example 2]
- Reaction latency(sec) Mean±S.E (Dose 10 mg/kg): 150.7 ± 27.1 s
- Rate of improvement (%) (Dose 10 mg/kg): 42.9%
- Reaction latency(sec) Mean±S.E (Dose 30 mg/kg): 231.2 ± 19.0 s
- Rate of improvement (%) (Dose 30 mg/kg): 76.8%

Structure (SMILES): O=C(Nc1ccc(Cl)cc1)OC1CCCN(c2ccncc2)C1 (centres unmarked) [Example 49]
- Reaction latency(sec) Mean±S.E (Dose 10 mg/kg): 154.0 ± 27.2 s
- Reaction latency(sec) Mean±S.E (Dose 30 mg/kg): 183.7 ± 26.3 s
- Rate of improvement (%) (Dose 30 mg/kg): 45.3%

Structure (SMILES): C1=Cc2cccc(OCC3CNCCO3)c2C1 (centres unmarked) [Indeloxazine]
- Reaction latency(sec) Mean±S.E (Dose 40 mg/kg): 219.3 ± 17.8 s
- Rate of improvement (%) (Dose 40 mg/kg): 30.1%
- improving activity to disturbance of memory (summary in words of Table 1): vitiated or not enough

Structure (SMILES): COC(=O)C1=C(C)NC(C)=C(C(=O)OCCN(C)Cc2ccccc2)C1c1cccc([N+](=O)[O-])c1 (centres unmarked) [Nicardipine]
- Reaction latency(sec) Mean±S.E (Dose 5 mg/kg): 92.9 ± 28.1 s
- Rate of improvement (%) (Dose 5 mg/kg): -59.8%
